# Measured values taken from US10570122B2, “Compounds with anti-tumoral activity” (AB Science, priority 2015, dated 2020).
# What was measured:
# DU145 = assay: CellTiter-Blue cell-based survival/proliferation assay, DU145; conditions: Homo sapiens, DU-145; DU145 prostate tumor cell line, 48 h
# How it was run: (§1)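 Compounds, diluted tenfold serially over 0–10 μM, are applied to 1·10^4 seeded cells per well for 48 h at 37 °C. Resorufin formed during a further 4 h with CellTiter-Blue is detected by fluorescence emission at 590 nm.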
# H1299 = assay: CellTiter-Blue cell-based survival/proliferation assay, H1299; conditions: Homo sapiens, NCI-H1299; H1299 lung tumor cell line, 48 h
# How it was run: as §1
# DLD1 = assay: CellTiter-Blue cell-based survival/proliferation assay, DLD1; conditions: Homo sapiens, DLD-1; DLD_1 colorectal tumor cell line, 48 h
# How it was run: as §1
# PANC1 = assay: CellTiter-Blue cell-based survival/proliferation assay, PANC1; conditions: Homo sapiens, PANC-1; PANC_1 pancreas tumor cell line, 48 h
# How it was run: as §1
# CLS354 = assay: CellTiter-Blue cell-based survival/proliferation assay, CLS354; conditions: Homo sapiens, CLS-354; CLS354_4 head & neck tumor cell line, 48 h
# How it was run: as §1
# HEP2 = assay: CellTiter-Blue cell-based survival/proliferation assay, HEP2; conditions: Homo sapiens, HEp-2; HEP2 head & neck tumor cell line, 48 h
# How it was run: as §1
# A549 = assay: CellTiter-Blue cell-based survival/proliferation assay, A549; conditions: Homo sapiens; A549 lung tumor cell line, 48 h
# How it was run: as §1
# HGC27 = assay: CellTiter-Blue cell-based survival/proliferation assay, HGC27; conditions: Homo sapiens, HGC-27; HGC27 stomach tumor cell line, 48 h
# How it was run: as §1
# HEPG2 = assay: CellTiter-Blue cell-based survival/proliferation assay, HEPG2; conditions: Homo sapiens; HEPG2 liver tumor cell line, 48 h
# How it was run: as §1
# A375 = assay: CellTiter-Blue cell-based survival/proliferation assay, A375; conditions: Homo sapiens, A-375; A375 melanoma cell line, 48 h
# Protocol: (§2) Cell-Based Proliferation Screening of Compounds
# (§3) CellTiter-Blue cell-based survival/proliferation assay (Promega G8080) was performed on tumor cell lines. A total of 1·10^4 cells/well/50 μl were seeded in a 96-wells plate. Treatment was initiated by addition of a 2× drug solution of 1/10 serial dilutions ranging from 0 to 10 μM. Cells were grown for 48 h at 37° C. and then incubated with 10 μl/well of Promega CellTiter-Bleue reagent for 4 h at 37° C. The amount of resorufin dye formed was quantified by its fluorescence emission at 590 nm using a scanning multiwell spectrophotometer (OPTIMA, BMG labtech, France). A blank well without cells was used as a background control for the spectrophotometer.
# CALU6 = assay: CellTiter-Blue cell-based survival/proliferation assay, CALU6; conditions: Homo sapiens, Calu-6; CALU6 lung tumor cell line, 48 h
# How it was run: as §1
# ACHN = assay: CellTiter-Blue cell-based survival/proliferation assay, ACHN; conditions: Homo sapiens; ACHN kidney tumor cell line, 48 h
# How it was run: as §1
# BXPC3 = assay: CellTiter-Blue cell-based survival/proliferation assay, BXPC3; conditions: Homo sapiens, BXPC-3; BXPC3 pancreas tumor cell line, 48 h
# How it was run: as §1
# A498 = assay: CellTiter-Blue cell-based survival/proliferation assay, A498; conditions: Homo sapiens; A498 kidney tumor cell line, 48 h
# How it was run: as §1
# A4513 = assay: CellTiter-Blue cell-based survival/proliferation assay, A4513; conditions: Homo sapiens; A4513 Ewing cell line, 48 h
# Protocol: as §2, §3
# U87MG = assay: CellTiter-Blue cell-based survival/proliferation assay, U87MG; conditions: Homo sapiens, U-87 MG; U87_MG glioblastoma cell line, 48 h
# Protocol: as §2, §3
# PC3 = assay: CellTiter-Blue cell-based survival/proliferation assay, PC3; conditions: Homo sapiens, PC-3; PC3 prostate tumor cell line, 48 h
# How it was run: as §1
# BT20 = assay: CellTiter-Blue cell-based survival/proliferation assay, BT20; conditions: Homo sapiens, BT-20; BT20 breast tumor cell line, 48 h
# How it was run: as §1
# KARPAS299 = assay: CellTiter-Blue cell-based survival/proliferation assay, KARPAS299; conditions: Homo sapiens, KARPAS-299, Lymphoma cell line KARPAS299, 48 h, read-out: Anti-tumoral activity (measured IC50) KARPAS299
# How it was run: as §1
# MELWO = assay: CellTiter-Blue cell-based survival/proliferation assay, MELWO; conditions: Homo sapiens; MEL_WO melanoma cell line, 48 h
# Protocol: as §2, §3
# HUT78 = assay: CellTiter-Blue cell-based survival/proliferation assay, HUT78; conditions: Homo sapiens, Lymphoma cell line HUT78, 48 h, read-out: Anti-tumoral activity (measured IC50) HUT78
# How it was run: as §1
# U118 = assay: CellTiter-Blue cell-based survival/proliferation assay, U118; conditions: Homo sapiens; U118 glioblastoma cell line, 48 h
# Protocol: as §2, §3
# U2OS = assay: CellTiter-Blue cell-based survival/proliferation assay, U2OS; conditions: Homo sapiens; U2OS osteosarcoma cell line, 48 h
# Protocol: as §2, §3
# SW579 = assay: CellTiter-Blue cell-based survival/proliferation assay, SW579; conditions: Homo sapiens; SW579 head & neck tumor cell line, 48 h
# How it was run: as §1
# TOV112D = assay: CellTiter-Blue cell-based survival/proliferation assay, TOV112D; conditions: Homo sapiens; TOV112D ovary tumor cell line, 48 h
# How it was run: as §1
# MESSA = assay: CellTiter-Blue cell-based survival/proliferation assay, MESSA; conditions: Homo sapiens, MES-SA; MESSA ovary tumor cell line, 48 h
# How it was run: as §1
# REC1 = assay: CellTiter-Blue cell-based survival/proliferation assay, REC1; conditions: Homo sapiens, Lymphoma cell line REC1, 48 h, read-out: Anti-tumoral activity (measured IC50) REC1
# How it was run: as §1
# PLCPRF5 = assay: CellTiter-Blue cell-based survival/proliferation assay, PLCPRF5; conditions: Homo sapiens, PLC-PRF-5; PLC_PRF5 liver tumor cell line, 48 h
# How it was run: as §1
# HCT116 = assay: CellTiter-Blue cell-based survival/proliferation assay, HCT116; conditions: Homo sapiens, HCT-116; HCT116 colorectal tumor cell line, 48 h
# How it was run: as §1
# HL60 = assay: CellTiter-Blue cell-based survival/proliferation assay, HL60; conditions: Homo sapiens, HL-60, Leukemia cell line HL60, 48 h, read-out: Anti-tumoral activity (measured IC50) HL60
# How it was run: as §1
# MDAMB231 = assay: CellTiter-Blue cell-based survival/proliferation assay, MDAMB231; conditions: Homo sapiens, MDA-MB-231; MDAMB231 breast tumor cell line, 48 h
# How it was run: as §1
# OPM2 = assay: CellTiter-Blue cell-based survival/proliferation assay, OPM2; conditions: Homo sapiens, OPM-2, Myeloma cell line OPM2, 48 h, read-out: Anti-tumoral activity (measured IC50) OPM2
# How it was run: as §1
# AGS = assay: CellTiter-Blue cell-based survival/proliferation assay, AGS; conditions: Homo sapiens; AGS stomach tumor cell line, 48 h
# How it was run: as §1
SMILES,IC50 (DU145),IC50 (H1299),IC50 (DLD1),IC50 (PANC1),IC50 (CLS354),IC50 (HEP2),IC50 (HGC27),IC50 (HEPG2),IC50 (A375),IC50 (CALU6),IC50 (ACHN),IC50 (BXPC3),IC50 (A498),IC50 (A4513),IC50 (U87MG),IC50 (PC3),IC50 (BT20),IC50 (MELWO),IC50 (U118),IC50 (U2OS),also measured
"COc1ccc(C)c(Nc2ncc(-c3ccc(-n4cccn4)nc3)o2)c1 [Example 001, (5-Methoxy-2-methyl-phenyl)-[5-(6-pyrazol-1-yl-pyridin-3-yl)-oxazol-2-yl]-amine]",> 1000 nM,> 1000 nM,> 1000 nM,> 1000 nM,> 1000 nM,> 1000 nM,> 1000 nM,> 1000 nM,> 1000 nM,> 1000 nM,> 1000 nM,> 1000 nM,> 1000 nM,> 1000 nM,> 1000 nM,> 1000 nM,> 1000 nM,> 1000 nM,> 1000 nM,> 1000 nM,IC50 (A549): > 1000 nM; IC50 (KARPAS299): 500 to 1000 nM; IC50 (HUT78): > 1000 nM; IC50 (SW579): > 1000 nM; IC50 (TOV112D): > 1000 nM; IC50 (MESSA): > 1000 nM; IC50 (REC1): 500 to 1000 nM; IC50 (PLCPRF5): > 1000 nM; IC50 (HCT116): > 1000 nM; IC50 (HL60): > 1000 nM; IC50 (MDAMB231): > 1000 nM; IC50 (OPM2): > 1000 nM; IC50 (AGS): > 1000 nM
"CCOCc1ccc(C)c(Nc2ncc(-c3ccc(-n4cccn4)c(OC)c3)o2)c1 [Example 002, (5-Ethoxymethyl-2-methyl-phenyl)-[5-(3-methoxy-4-pyrazol-1-yl-phenyl)-oxazol-2-yl]-amine]",> 1000 nM,> 1000 nM,> 1000 nM,> 1000 nM,> 1000 nM,> 1000 nM,> 1000 nM,> 1000 nM,> 1000 nM,> 1000 nM,> 1000 nM,> 1000 nM,> 1000 nM,> 1000 nM,> 1000 nM,> 1000 nM,> 1000 nM,> 1000 nM,> 1000 nM,> 1000 nM,IC50 (A549): > 1000 nM; IC50 (KARPAS299): > 1000 nM; IC50 (HUT78): > 1000 nM; IC50 (SW579): > 1000 nM; IC50 (TOV112D): > 1000 nM; IC50 (MESSA): > 1000 nM; IC50 (REC1): > 1000 nM; IC50 (PLCPRF5): > 1000 nM; IC50 (HCT116): > 1000 nM; IC50 (HL60): > 1000 nM; IC50 (MDAMB231): > 1000 nM; IC50 (OPM2): > 1000 nM; IC50 (AGS): > 1000 nM
"CCOCc1ccc(C)c(Nc2nnc(-c3ccc(N4CCNC4=O)cc3)o2)c1 [Example 008, 1-{4-[5-(5-Ethoxymethyl-(2-methyl-phenylamino))-[1,3,4]oxadiazol-2-yl]-phenyl}-imidazolidin-2-one]",> 1000 nM,> 1000 nM,> 1000 nM,> 1000 nM,100 to 500 nM,≤ 100 nM,500 to 1000 nM,> 1000 nM,≤ 100 nM,> 1000 nM,≤ 100 nM,> 1000 nM,> 1000 nM,> 1000 nM,> 1000 nM,≤ 100 nM,> 1000 nM,500 to 1000 nM,> 1000 nM,> 1000 nM,IC50 (KARPAS299): ≤ 100 nM; IC50 (HUT78): ≤ 100 nM; IC50 (SW579): 500 to 1000 nM; IC50 (TOV112D): ≤ 100 nM; IC50 (MESSA): > 1000 nM; IC50 (REC1): ≤ 100 nM; IC50 (PLCPRF5): > 1000 nM; IC50 (HCT116): ≤ 100 nM; IC50 (HL60): ≤ 100 nM; IC50 (MDAMB231): > 1000 nM; IC50 (OPM2): ≤ 100 nM; IC50 (AGS): > 1000 nM
"CCOCc1ccc(C)c(Nc2nnc(-c3ccc(-n4cccn4)cc3)o2)c1 [Example 009, (5-Ethoxymethyl-2-methyl-phenyl)-[5-(4-pyrazol-1-yl-phenyl)-[1,3,4]oxadiazol-2-yl]-amine]",> 1000 nM,> 1000 nM,> 1000 nM,> 1000 nM,> 1000 nM,> 1000 nM,> 1000 nM,> 1000 nM,> 1000 nM,> 1000 nM,> 1000 nM,> 1000 nM,> 1000 nM,> 1000 nM,> 1000 nM,> 1000 nM,> 1000 nM,> 1000 nM,> 1000 nM,> 1000 nM,IC50 (A549): > 1000 nM; IC50 (SW579): > 1000 nM; IC50 (TOV112D): > 1000 nM; IC50 (MESSA): > 1000 nM; IC50 (PLCPRF5): > 1000 nM; IC50 (HCT116): > 1000 nM; IC50 (HL60): > 1000 nM; IC50 (MDAMB231): > 1000 nM; IC50 (OPM2): > 1000 nM; IC50 (AGS): > 1000 nM
